Assay results reported in patent publication US10059676B2, “Process for preparing a novel crystalline form of iodosulfuron-methyl-sodium and use of the same” (ROTAM AGROCHEM INTERNATIONAL COMPANY LIMITED, priority 2015, dated 2018).

Assay: Stability test: accelerated storage of formulations, relative percentage of hydrolysis (RPH) by HPLC (CIPAC MT 46.3)
Assay type: physicochemical
Settings: for stability (hydrolysis), in words: general statement, in water, on storage, in formulations; for RPH % (relative percentage of hydrolysis): stored at 54° C. for 1 week
Experimental: The stability of the iodosulfuron-methyl-sodium in these compositions was determined by aging samples in heated ovens having the same atmosphere therein, and then comparing the iodosulfuron-methyl-sodium content before and after the aging to determine relative percentage of hydrolysis (RPH). RPH was calculated by the following equation: […]
Iodosulfuron-methyl-sodium content was determined by assaying the compositions with high-pressure liquid chromatography (HPLC) using reverse phase columns and eluants.
Samples prepared in Examples 4, 5 and 6 were stored at 54° C. for 1 week. The procedures are followed according to CIPAC MT 46.3. The concentration of iodosulfuron-methyl-sodium was measured at the end of each storage time by HPLC.

[1] = oil based suspension concentrate (OD) of Example 4, 40 wt% iodosulfuron-methyl-sodium
[2] = soluble granules (SG) of Example 5, 25 wt% iodosulfuron-methyl-sodium
[3] = water dispersible granules (WG) of Example 6, 25 wt% iodosulfuron-methyl-sodium

stability (hydrolysis), in words (listed as iodosulfuron-methyl-sodium in the amorphous state)	RPH % (relative percentage of hydrolysis) [1]	RPH % (relative percentage of hydrolysis) [2]	RPH % (relative percentage of hydrolysis) [3]	stability (hydrolysis), in words (listed as crystalline modification I of iodosulfuron-methyl-sodium)	SMILES
highly unstable	49%	42%	40%		COC(=O)c1ccc(I)cc1S(=O)(=O)NC(=O)[N-]c1nc(C)nc(OC)n1.[Na+] [Amorphous iodosulfuron-methyl-sodium, sodium salt of methyl 4-iodo-2-[[[[(4-methoxy-6-methyl-1,3,5-triazin-2-yl)amino]carbonyl]amino]sulfonyl]benzoate]
	0%	0%	0%	significant increase in its stability	COC(=O)c1ccc(I)cc1S(=O)(=O)NC(=O)[N-]c1nc(C)nc(OC)n1.[Na+] [Iodosulfuron-methyl-sodium, crystalline modification I] [sodium salt of methyl 4-iodo-2-[[[[(4-methoxy-6-methyl-1,3,5-triazin-2-yl)amino]carbonyl]amino]sulfonyl]benzoate]
